Here are results for two molecules from patent publication US7498406B2, “Substantially cell membrane impermeable compound and use thereof” (priority 1999, dated 2009).

Broadly, the IC50 is the concentration that inhibits the measured activity by half.

One data set has as its system BxPc3. Kind of data set: Proliferation of cultured cells, 72 hr. The format is cell-based, human. As to conditions: 5% FCS, 0 to 1 mM. As for the experimental part: (§1) FIG. 19. Effect of GSAO on proliferation of non-endothelial cells. 15,000 BxPC-3 (part A), HT1080 (part B), 3T3 (part C) or BVSM (part D) cells per well were seeded into gelatinised 24-well culture plates and allowed to attach for 24 hr. The media was then replaced with DMEM containing 0 to 1 mM GSAO or GSAA and either 5% BCS (part D) or 5% FCS (parts A, B and C). Cells were cultured for 72 hr and then dispersed and counted. The dotted lines indicate the cell number in control wells containing DMEM and 2% BCS (part D) or 2% FCS (parts A, B and C) which represented no to limited proliferation. The data points and errors represent the mean and range of duplicate wells.
(§2) BCE (Folkman et al. 1979), BAE, BxPC-3 (ATCC, Bethesda, Md.), HT1080 (Jiang et al., 1999), 3T3 (ATCC, Bethesda, Md.) and BVSM (Hogg et al., 1997) cells were harvested and cultured as indicated. Cells (0.5 mL of 30,000 or 100,000 cells per mL) were seeded into gelatinized 24-well culture plates (Corning Costar, Corning, N.Y.) in Dulbecco's Modified Eagle's Medium (DMEM, JHR Bioscience, Lenexa, Kans.) containing 10% fetal calf serum (FCS, Intergen Comp., Purchase, N.Y.) and 1% Glutamine Pen-Strep (GPS, Irvine Scientific, Santa Ana, Va.) and allowed to attach for 24 hr in 10% CO2 at 37° C. The media was then replaced with DMEM and 1% GPS containing 0 to 1 mM GSAO or GSAA and either 5% bovine calf serum (BCS, HyClone, Logan, Utah) and 1 ng per mL FGF-2 (Genzyme, Cambridge, Mass.) or 5% BCS and 10 ng per mL VEGF (Genzyme, Cambridge, Mass.) for BCE cells, 5% or 10% BCS for BAE cells, 5% BCS for BVSM cells, and 5% FCS for BxPC-3, HT1080 and 3T3 cells. Cells were cultured for 0 to 72 hr in 10% CO2 at 37° C. then dispersed in trypsin/EDTA (GibcoBRL, Granc Island, N.Y.), resuspended in Coulter balanced electrolyte solution and counted with a Z1 Coulter counter (Coulter Corp., Miami, Fla.) in all experiments there were two control wells containing DMEM with 1% GPS and either 5% BCS for BCE cells, 2% BCS for BAE and BVSM cells, or 2% FCS for BxPC-3, HT1080 and 3T3 cells. These wells represented no to limited proliferation.

In another data set the test system is HT1080. Kind of data set: Proliferation of cultured cells, 72 hr. As to conditions: 5% FCS, 0 to 1 mM. The format is cell-based, human. The method, then:
as §1, §2

In another data set the test system is BCE. Kind of data set: Proliferation of cultured cells, 72 hr. It counts as cell-based, bovine. The following applies: for IC50: 72 hr. As for the experimental part:
FIG. 18. Inhibition of proliferation and reduction in viability of BCE cells by GSAO. 15,000 (part A and B) or 50,000 (part C and D) BCE cells per well were seeded into gelatinised 24-well culture plates and allowed to attach for 24 hr (part A, B and D) or 72 hr (part C). The media was then replaced with DMEM containing 5% BCS and 0 to 1 mM GSAO or GSAA and either 1 ng per mL FGF-2 (part A) or 10 ng per mL VEGF (part B). In part D, the media was replaced with DMEM containing 5% BCS and 1 ng per mL FGF-2 and either 10 μM GSAO or GSAA. In part C, the media was replaced with DMEM containing 5% BCS and 0 to 1 mM GSAO or GSAA. Cells were cultured for 72 hr in parts A, B and C or for discrete times up to 48 hr in part D and then dispersed and counted. The dotted line in parts A, B and C indicate the cell number in control wells containing DMEM and 5% BCS which represented no to limited proliferation. The dotted line in part D represents no change in cell number over the 48 hr. The data points and errors represent the mean and range of duplicate wells.
as §2, with “The media was then replaced with DMEM and 1% GPS containing 0 to 1 mM GSAO or GSAA and either 5% bovine calf serum (BCS, HyClone, Logan, Utah) and 1 ng per mL FGF-2 (Genzyme, Cambridge, Mass.) or 5% BCS and 10 ng per mL VEGF (Genzyme, Cambridge, Mass.) for BCE cells, 5% or 10% BCS for BAE cells, 5% BCS for BVSM cells, and 5% FCS for BxPC-3, HT1080 and 3T3 cells.” left out, “These wells represented no to limited proliferation.” left out

Data set [1] is classed as in vivo, SCID mice. The following applies: for macroscopic differences to untreated mice / morphological changes in heart, lungs, liver, kidneys, spleen: 10 mg per kg per day; for macroscopic differences to untreated mice: end of experiment; for morphological changes in heart, lungs, liver, kidneys, spleen: light microscopy (not shown); for adverse side effects of administration: 2 or 10 mg per kg per day, subcutaneous. As for the experimental part:
FIG. 24. […] The data points and errors represent the mean and SE of the animal weights for the experiment described in FIG. 23.
Female 7 to 9 week old SCID or C57Bl6/J mice were used (Massachusetts General Hospital, Boston, Mass.). Mice were held in groups of 3 to 5 at a 12 hour day and night cycle and were fed with animal chow and water ad libidum. SCID mice were anaesthetised by inhalation of isoflurane, the dorsal skin shaved and cleaned with ethanol, and a suspension of 2.5×10^6 BxPC-3 or HT1080 cells in 0.2 mL of DMEM was injected subcutaneously in the proximal midline. C57Bl6/J mice with Lewis lung carcinomas of 0.6-1.2 cm^3 volumes were sacrificed and the skin overlying the tumour was cleaned with betadine and ethanol. Tumour tissue was excised under aseptic conditions and a suspension of tumour cells in 0.9% saline was made by passage of tumour tissue through a sieve and a series of sequentially smaller 22- to 30-gauge hypodermic needles. C57Bl6/J mice were anaesthetised and prepared as for SCID mice and a suspension of Lewis lung carcinoma cells in 0.2 mL of saline was injected subcutaneously in the proximal midline. Tumours were allowed to establish and grow to a size of ˜0.1 cm^3 after which they were randomised into two groups. The tumours were measured in two diameters and tumour volume was calculated using the relationship, tumour volume=a×b^2×0.52, where a is the longest and b the shortest diameters in cm. Animals were treated with either GSAA or GSAO at doses of 2 or 10 mg per kg per day in 0.2 mL of PBS containing 100 mM glycine. The compounds were administered subcutaneously at a site distant from the tumour. Tumour volume and animal weight was measured every 3 days. The tumours were excised and weighed when the animals were sacrificed.
At the conclusion of the experiment described in FIG. 23B the mice from both treatment groups were examined. […] The heart, lungs, liver, kidneys, and spleen of the GSAA or GSAO-treated and untreated mice were fixed in formaldehyde, embedded in paraffin, sectioned, stained with haematoxylin and eosin and examined by light microscopy.

For `NC(CCC(=O)NC(CSCC(=O)Nc1ccc([As]=O)cc1)C(=O)NCC(=O)O)C(=O)O` (stereo not shown) [GSAO, 4-(N-(S-glutathionylacetyl)amino)-phenylarsenoxide], the “Proliferation IC50” value in the data set on BxPc3 and in the data set with HT1080 was “did not affect the proliferation” in each case. In addition, the IC50 is roughly 0.1 µM in the data set with BCE (5% BCS + 1 ng/mL FGF-2) and roughly 0.05 µM in the data set on BCE (5% BCS + 10 ng/mL VEGF). Further, in data set [1], the “macroscopic differences to untreated mice” value is listed as “no apparent macroscopic differences”. For the same molecule, the “morphological changes in heart, lungs, liver, kidneys, spleen” value in data set [1] was “no obvious morphological changes”. The “adverse side effects of administration” value in data set [1] is “no apparent adverse side effects”.
In the case of `N[C@@H](CCC(=O)N[C@@H](CSCC(=O)Nc1ccc([As](=O)(O)O)cc1)C(=O)NCC(=O)O)C(=O)O` [GSAA, 4-(N-(S-glutathionylacetyl)amino)phenylarsonic acid, reference compound], in the data set with BxPc3, the “Proliferation IC50” value was “no significant effect”. For the same molecule, the “Proliferation IC50” value with HT1080 is “no significant effect”. In the data set with BCE (highest concentration used, 1 mM), the “effect on proliferation of BCE cells” value was “only a marginal effect on proliferation”. In addition, in data set [1], the “macroscopic differences to untreated mice” value is on record as “no apparent macroscopic differences”; the “morphological changes in heart, lungs, liver, kidneys, spleen” value is “no obvious morphological changes”; the “adverse side effects of administration” value was “no apparent adverse side effects”.
